Experiment [1] concerns TSLP promoter (TSLP-Luc construct). As to the kind of experiment: TSLP-Luc transient transfection luciferase reporter assay in LAD 2 cells. The format is cell-based, human. The note with it: A23187 500 ng/ml alone. An excerpt: (§1) A calcium ionophore alone was also able to stimulate TSLP promoter activity.
A general note: In a reporter assay the amount or activity of a reporter protein is the signal.

Experiment [2] concerns TA-Luc (control construct). As to the kind of experiment: TA-Luc control construct transient transfection luciferase reporter assay in LAD 2 cells. The format is cell-based, human. As to conditions: A23187 500 ng/ml alone.
Description: as §1

SMILES strings stand for the structures.

`CNc1ccc2oc(C[C@H]3O[C@@]4(CC[C@H]3C)O[C@H]([C@H](C)C(=O)c3ccc[nH]3)[C@H](C)C[C@H]4C)nc2c1C(=O)O` [A23187]: the “F/R luciferase activity, TSLP-Luc construct” value in experiment [1] is recorded as 171.0 units of F/R luciferase activity. The “F/R luciferase activity, control construct TA-Luc” value in experiment [2] is reported as 29.6 units of F/R luciferase activity.

These data come from US20090156467A1, “Thymic stromal lymphpoietin promoter and use therefor” (priority 2004, published 2009).
